The target in this assay is DGKα (Homo sapiens (Human), UniProt P23743). Put plainly: Human DGKα kinase activity inhibition assay (ADP-Glo). In kind it is biochemical. The settings on record: recombinant full-length human DGKα, 55 μM ATP, 7 μM 1,2-dioleoyl-sn-glycerol, read-out: IC50 values of examples in in vitro human DGKa kinase activity inhibition assays. The procedure, abridged:
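Recombinant full-length human DGKα (C-terminal FLAG, from insect cells) phosphorylated 1,2-dioleoyl-sn-glycerol presented in octyl-glucopyranoside micelles. ADP formed was quantified by ADP-Glo luminescence. Compounds were added from 100-fold DMSO stocks.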
Chain of DGKα (P23743 other isoform, or with tags, fused parts or gaps): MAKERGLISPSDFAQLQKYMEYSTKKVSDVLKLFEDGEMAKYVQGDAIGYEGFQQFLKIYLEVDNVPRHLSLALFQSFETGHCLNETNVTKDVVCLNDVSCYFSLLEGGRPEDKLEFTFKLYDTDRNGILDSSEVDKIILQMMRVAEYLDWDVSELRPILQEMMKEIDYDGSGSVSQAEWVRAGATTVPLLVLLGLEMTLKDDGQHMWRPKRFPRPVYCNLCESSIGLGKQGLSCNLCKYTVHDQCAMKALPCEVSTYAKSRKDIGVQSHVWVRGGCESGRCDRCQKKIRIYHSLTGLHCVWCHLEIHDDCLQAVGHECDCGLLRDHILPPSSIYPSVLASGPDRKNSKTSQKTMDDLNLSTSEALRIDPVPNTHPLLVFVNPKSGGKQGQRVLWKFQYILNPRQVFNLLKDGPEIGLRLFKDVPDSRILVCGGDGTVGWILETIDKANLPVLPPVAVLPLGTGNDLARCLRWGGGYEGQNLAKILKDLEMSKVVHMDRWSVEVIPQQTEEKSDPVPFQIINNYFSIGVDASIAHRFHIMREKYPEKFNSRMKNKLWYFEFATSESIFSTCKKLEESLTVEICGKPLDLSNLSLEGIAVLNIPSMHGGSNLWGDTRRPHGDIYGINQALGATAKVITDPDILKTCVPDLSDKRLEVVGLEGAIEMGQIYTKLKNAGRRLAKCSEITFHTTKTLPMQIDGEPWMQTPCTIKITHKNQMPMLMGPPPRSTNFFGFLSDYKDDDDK
For orientation: IC50 means the concentration at which inhibition is half-maximal. Consider `Cc1ccc2oc(C3CCN(c4c(C(N)=O)c(=O)n(C)c5cc([N+](=O)[O-])c(C)cc45)CC3)nc2c1` [Example 510, 1,6-dimethyl-4-[4-(5-methyl-1,3-benzoxazol-2-yl)piperidin-1-yl]-7-nitro-2-oxo-1,2-dihydroquinoline-3-carboxamide], for which the IC50 turned out to be 0.07 µM.

As for `COc1ccccc1-c1csc(C2CCN(c3c(C#N)c(=O)n(C)c4ccccc34)CC2)n1` [Example 373, 4-{4-[4-(2-methoxyphenyl)-1,3-thiazol-2-yl]piperidin-1-yl}-1-methyl-2-oxo-1,2-dihydroquinoline-3-carbonitrile], the IC50 worked out at 0.0099 µM.

On to `Cc1ccc2oc(C3CCN(c4c(C#N)c(=O)n(C)c5cc(C(F)(F)F)ccc45)CC3)nc2c1` [Example 289, 1-methyl-4-[4-(5-methyl-1,3-benzoxazol-2-yl)piperidin-1-yl]-2-oxo-7-(trifluoromethyl)-1,2-dihydroquinoline-3-carbonitrile], for which the IC50 was 0.0083 µM.

As to `Cc1nc2ccc(C3CCN(c4c(C#N)c(=O)n(C)c5ccccc45)CC3)cc2o1` [Example 376, 1-methyl-4-[4-(2-methyl-1,3-benzoxazol-6-yl)piperidin-1-yl]-2-oxo-1,2-dihydroquinoline-3-carbonitrile], the IC50 worked out at 0.014 µM.

In the case of `COc1ccc2c(c1)c(N1CCC(c3nc4cc(C)ccc4o3)CC1)c(C(N)=O)c(=O)n2C` [Example 501, 6-methoxy-1-methyl-4-[4-(5-methyl-1,3-benzoxazol-2-yl)piperidin-1-yl]-2-oxo-1,2-dihydroquinoline-3-carboxamide], the IC50 worked out at 0.021 µM.

For the compound `Cc1ccc2oc(C3CCN(c4c(C#N)c(=O)n(C)c5cc(N(C)CCO)ccc45)CC3)nc2c1` [Example 399, 7-[(2-hydroxyethyl)(methyl)amino]-1-methyl-4-[4-(5-methyl-1,3-benzoxazol-2-yl)piperidin-1-yl]-2-oxo-1,2-dihydroquinoline-3-carbonitrile], the IC50 was determined as 0.0005 µM.

Regarding `Cc1ccc2oc(C3CCN(c4c(C(N)=O)c(=O)n(C)c5cc(F)c(Br)cc45)CC3)nc2c1` [Example 563, 6-bromo-7-fluoro-1-methyl-4-[4-(5-methyl-1,3-benzoxazol-2-yl)piperidin-1-yl]-2-oxo-1,2-dihydroquinoline-3-carboxamide], the IC50 worked out at 0.0017 µM.

As for `CC1Cc2cc(C3CCN(c4c(C(N)=O)c(=O)n(C)c5ccccc45)CC3)ccc2O1` (stereo not shown) [Example 466, 1-methyl-4-{4-[2-methyl-2,3-dihydro-1-benzofuran-5-yl]piperidin-1-yl}-2-oxo-1 2-dihydroquinoline-3-carboxamide], the IC50 came to 0.0005 µM.

On to `Cn1cc(C2CCN(c3c(C#N)c(=O)n(C)c4ccccc34)CC2)cn1` [Example 323, 1-methyl-4-[4-(1-methyl-1H-pyrazol-4-yl)piperidin-1-yl]-2-oxo-1,2-dihydroquinoline-3-carbonitrile], for which the IC50 stood at 0.326 µM.

Turning to `Cc1ccc2oc(C3CCN(c4c(C#N)c(=O)n(C)c5cc(O)c(Cl)cc45)CC3)nc2c1` [Example 567, 6-chloro-7-hydroxy-1-methyl-4-[4-(5-methyl-1,3-benzoxazol-2-yl)piperidin-1-yl]-2-oxo-1,2-dihydroquinoline-3-carbonitrile], the IC50 was 0.002 µM.

Turning to `COc1ccc2c(c1)c(N1CCC(c3nc(-c4ccccc4)no3)CC1)c(C#N)c(=O)n2C` [Example 437, 6-methoxy-1-methyl-2-oxo-4-[4-(3-phenyl-1,2,4-oxadiazol-5-yl)piperidin-1-yl]-1,2-dihydroquinoline-3-carbonitrile], the IC50 came to 0.027 µM.

On to `COCCc1ccc2nc(C3CCN(c4c(C(N)=O)c(=O)n(C)c5ccccc45)CC3)oc2c1` [Example 317, 4-{4-[6-(2-methoxyethyl)-1,3-benzoxazol-2-yl]piperidin-1-yl}-1-methyl-2-oxo-1,2-dihydroquinoline-3-carboxamide], for which the IC50 amounted to 0.017 µM.

As for `COc1ccc2c(N3CCC(c4ccccc4)CC3)c(C#N)c(=O)n(C)c2c1` [Example 256, 7-methoxy-1-methyl-2-oxo-4-(4-phenylpiperidin-1-yl)-1,2-dihydroquinoline-3-carbonitrile], the IC50 turned out to be 0.025 µM.

As to `Cc1ccc2oc(C3CCN(c4c(C#N)c(=O)n(C)c5cc([N+](=O)[O-])c(C)cc45)CC3)nc2c1` [Example 421, 1,6-dimethyl-4-[4-(5-methyl-1,3-benzoxazol-2-yl)piperidin-1-yl]-7-nitro-2-oxo-1,2-dihydroquinoline-3-carbonitrile], the IC50 worked out at 0.137 µM.

In the case of `Cc1ccc2oc(C3(C)CCN(c4c(C#N)c(=O)n(C)c5cc(O)c(Br)cc45)CC3)nc2c1` [Example 423, 6-bromo-7-hydroxy-1-methyl-4-[4-methyl-4-(5-methyl-1,3-benzoxazol-2-yl)piperidin-1-yl]-2-oxo-1,2-dihydroquinoline-3-carbonitrile], the IC50 was found to be 0.001 µM.

On to `Cn1c(=O)c(C#N)c(N2CCC(C)(c3nc4ccccc4o3)CC2)c2cccc(Br)c21` [Example 156, 4-[4-(1,3-benzoxazol-2-yl)-4-methylpiperidin-1-yl]-8-bromo-1-methyl-2-oxo-1,2-dihydroquinoline-3-carbonitrile], for which the half-maximal inhibitory concentration (IC50) worked out at 0.182 µM.

Consider `Cc1ccc2oc(C3CCN(c4c(C(N)=O)c(=O)n(C)c5cc(N(C)CCO)ccc45)CC3)nc2c1` [Example 495, 7-[(2-hydroxyethyl)(methyl)amino]-1-methyl-4-[4-(5-methyl-1,3-benzoxazol-2-yl)piperidin-1-yl]-2-oxo-1,2-dihydroquinoline-3-carboxamide], for which the IC50 turned out to be 0.0014 µM.

On to `Cc1ccc2c(c1)c(N1CCC(C)(c3nc4ccccc4o3)CC1)c(C(N)=O)c(=O)n2C` [Example 195, 4-[4-(1,3-benzoxazol-2-yl)-4-methylpiperidin-1-yl]-1,6-dimethyl-2-oxo-1,2-dihydroquinoline-3-carboxamide], for which the IC50 turned out to be 0.0015 µM.

For the compound `Cc1ccc2c(c1)c(N1CCC(c3nc4ccccc4o3)CC1)c(C(N)=O)c(=O)n2C` [Example 193, 4-[4-(1,3-benzoxazol-2-yl)piperidin-1-yl]-1,6-dimethyl-2-oxo-1,2-dihydroquinoline-3-carboxamide], the IC50 stood at 0.0024 µM.

Turning to `Cc1ccc2oc(C3CCN(c4c(C#N)c(=O)n(C)c5ccc(C6CCC6(C)C)cc45)CC3)nc2c1` (stereo not shown) [Example 410, 6-[2,2-dimethylcyclobutyl]-1-methyl-4-[4-(5-methyl-1,3-benzoxazol-2-yl)piperidin-1-yl]-2-oxo-1,2-dihydroquinoline-3-carbonitrile], the IC50 was 0.051 µM.

`Cn1c(=O)c(C#N)c(N2CCC(c3cc(Cl)cc(Cl)c3)CC2)c2ccccc21` [Example 84, 4-[4-(3,5-dichlorophenyl)piperidin-1-yl]-1-methyl-2-oxo-1,2-dihydroquinoline-3-carbonitrile]: the IC50 is 0.052 µM.

Regarding `Cc1ccc2oc(C3(C)CCN(c4c(C#N)c(=O)n(C)c5c(S(C)(=O)=O)cccc45)CC3)nc2c1` [Example 164, 8-(methanesulfonyl)-1-methyl-4-[4-methyl-4-(5-methyl-1,3-benzoxazol-2-yl)piperidin-1-yl]-2-oxo-1,2-dihydroquinoline-3-carbonitrile], the IC50 came to 0.0011 µM.

In the case of `COc1ccc(C2CCN(c3c(C#N)c(=O)n(C)c4ccc(C#N)cc34)CC2)cc1` [Example 173, 4-[4-(4-methoxyphenyl)piperidin-1-yl]-1-methyl-2-oxo-1,2-dihydroquinoline-3,6-dicarbonitrile], the IC50 was 0.012 µM.

Regarding `CNC(=O)c1c(N2CCC(c3nc4cc(C)ccc4o3)CC2)c2ccccc2n(C)c1=O` [Example 448, N,1-dimethyl-4-[4-(5-methyl-1,3-benzoxazol-2-yl)piperidin-1-yl]-2-oxo-1,2-dihydroquinoline-3-carboxamide], the IC50 came to 0.027 µM.

Regarding `Cn1c(=O)c(C#N)c(N2CCC(c3ccc4cc(C(F)F)cnc4c3)CC2)c2ccccc21` [Example 378, 4-{4-[3-(difluoromethyl)quinolin-7-yl]piperidin-1-yl}-1-methyl-2-oxo-1,2-dihydroquinoline-3-carbonitrile], the 50% inhibitory concentration (IC50) came out at 0.023 µM.

Regarding `Cc1cc(C2(C)CCN(c3c(C(N)=O)c(=O)n(C)c4ccccc34)CC2)nc2ccccc12` [Example 470, 1-methyl-4-[4-methyl-4-(4-methylquinolin-2-yl)piperidin-1-yl]-2-oxo-1,2-dihydroquinoline-3-carboxamide], the IC50 came out at 0.013 µM.

Turning to `Cc1ccc2oc(C3(C)CCN(c4c(C(N)=O)c(=O)n(C)c5ccc(C)cc45)CC3)nc2c1` [Example 198, 1,6-dimethyl-4-[4-methyl-4-(5-methyl-1,3-benzoxazol-2-yl)piperidin-1-yl]-2-oxo-1,2-dihydroquinoline-3-carboxamide], the IC50 was 0.0021 µM.

As to `Cc1cc2c(N3CCC(c4nc(-c5ccccc5C)no4)CC3)c(C#N)c(=O)n(C)c2cc1NCCO` [Example 559, 7-[(2-hydroxyethyl)amino]-1,6-dimethyl-4-{4-[3-(2-methylphenyl)-1,2,4-oxadiazol-5-yl]piperidin-1-yl}-2-oxo-1,2-dihydroquinoline-3-carbonitrile], the IC50 came out at 0.0017 µM.

Regarding `Cc1ccccc1-c1nnc(C2CCN(c3c(C#N)c(=O)n(C)c4ccc(Br)cc34)CC2)o1` [Example 442, 6-bromo-1-methyl-4-{4-[5-(2-methylphenyl)-1,3,4-oxadiazol-2-yl]piperidin-1-yl}-2-oxo-1,2-dihydroquinoline-3-carbonitrile], the IC50 is 0.015 µM.

Take `COc1ccc(C2CCN(c3c(C#N)c(=O)n(C)c4cc(C5COC5)ccc34)CC2)cc1` [Example 97, 4-[4-(4-methoxyphenyl)piperidin-1-yl]-1-methyl-7-(oxetan-3-yl)-2-oxo-1,2-dihydroquinoline-3-carbonitrile]: the IC50 turned out to be 0.033 µM.

Regarding `Cc1ccc2c(N3CCC(c4nc5ccccc5o4)CC3)c(C(N)=O)c(=O)n(C)c2c1` [Example 314, 4-[4-(1,3-benzoxazol-2-yl)piperidin-1-yl]-1,7-dimethyl-2-oxo-1,2-dihydroquinoline-3-carboxamide], the IC50 worked out at 0.0017 µM.

For the origin of these results see patent publication US11998539B2, “Substituted aminoquinolones as DGKalpha inhibitors for immune activation” (Bayer Aktiengesellschaft, priority 2019, dated 2024).
